pIC50: −log10 of the molar value. Read-outs that look alike come from different tables or passages of the source.
Key:
[1] = system: SARS-COV-2; test: microbe, parasite or virus in culture; format: cell-based; set-up: SI (Selectivity Index, CC50/IC50): unit not given here; settings: for SI (Selectivity Index, CC50/IC50): SARS-COV-2, values >50 assumed to be 50; for pIC50: read-out: SARS-COV-2 inhibition (IC50)
[2] = in vitro; settings: African green monkey
[3] = Severe acute respiratory syndrome coronavirus 2, Vero cells, 24 hours infection
[4] = Severe acute respiratory syndrome coronavirus 2, Vero, 24 h

SMILES	SI (Selectivity Index, CC50/IC50) [1]	pIC50 [1, 3]	CC50 [2]	pIC50 [1, 4]
CCNc1ccc(-c2c3c(cc4cc(OC)c(OC)cc24)COC3=O)cc1 [Example 250, 9-(4-(ethylamino)phenyl)-6,7-dimethoxynaphtho[2,3-c]furan-1(3H)-one]	10.40	5.32	> 50 µM	
COc1cc2cc3c(c(-c4cnc(N5CCC[C@@H]5CN5CCCC5)nc4)c2cc1OC)C(=O)OC3 [Example 110, (R)-6,7-dimethoxy-9-(2-(2-(pyrrolidin-1-ylmethyl)pyrrolidin-1-yl)pyrimidin-5-yl)naphtho[2,3-c]furan-1(3H)-one]	5.78	5.06	> 50 µM	
COCCN(CCOC)c1ncc(-c2c3c(cc4cc(OC)c(OC)cc24)COC3=O)cn1 [Example 72, 9-(2-(bis(2-methoxyethyl)amino)pyrimidin-5-yl)-6,7-dimethoxynaphtho[2,3-c]furan-1(3H)-one]	1.64	4.52	> 50 µM	
COc1cc2cc3c(c(-c4cnc(N(C)c5ccc(C)c(C)c5)nc4)c2cc1OC)C(=O)OC3 [Example 109, 9-(2-((3,4-dimethylphenyl)(methyl)amino)pyrimidin-5-yl)-6,7-dimethoxynaphtho[2,3-c]furan-1(3H)-one]	18.73	5.57	> 50 µM	
COc1cc2cc3c(c(-c4cnc(N5CCOCC5)nc4)c2cc1OC)C(=O)OC3 [Example 51, 6,7-dimethoxy-9-(2-morpholinopyrimidin-5-yl)naphtho[2,3-c]furan-1(3H)-one]	34.12	5.83	> 50 µM	
COCCN(C)c1ccc(-c2c3c(cc4cc(OC)c(OC)cc24)COC3=O)cn1.Cl [Example 168, 6,7-dimethoxy-9-(6-((2-methoxyethyl)(methyl)amino)pyridin-3-yl)naphtho[2,3-c]furan-1(3H)-one hydrochloride]	42.46		> 50 µM	5.93
COc1cc2cc3c(c(-c4ccc(N(C)C)cc4)c2cc1OC)C(=O)OC3.Cl [Example 247, 9-(4-(dimethylamino)phenyl)-6,7-dimethoxynaphtho[2,3-c]furan-1(3H)-one]	344.5		> 50 µM	6.82
COc1cc2cc3c(c(-c4ccc(N5CCOCC5)nc4)c2cc1OC)C(=O)OC3 [Example 124, 6,7-dimethoxy-9-(6-morpholinopyridin-3-yl)naphtho[2,3-c]furan-1(3H)-one]	176.18	6.55	> 50 µM	
COc1cc2c(OC)c3c(c(-c4ccc(N(C)C5Cc6ccccc6C5)nc4)c2cc1OC)COC3=O.Cl [Example 268, 4-(6-((2,3-dihydro-1H-indan-2-yl)(methyl)amino)pyridin-3-yl)-6,7,9-trimethoxynaphtho[2,3-c]furan-1(3H)-one]	1.00		> 50 µM	< 4.30
COc1cc2cc3c(c(-c4cnc(N5CCC[C@H]5C(=O)O)nc4)c2cc1OC)C(=O)OC3 [Example 61, (5-(6,7-dimethoxy-3-oxo-1,3-dihydronaphtho[2,3-c]furan-4-yl)pyrimidin-2-yl)-L-proline]	1.00	< 4.30	> 50 µM	
COc1cc2cc3c(c(-c4ccc(N5CCCC5)cc4)c2cc1OC)C(=O)OC3 [Example 251, 6,7-dimethoxy-9-(4-(pyrrolidin-1-yl)phenyl)naphtho[2,3-c]furan-1(3H)-one]	119.39	6.38	> 50 µM	
CCN(c1ncc(-c2c3c(cc4cc(OC)c(OC)cc24)COC3=O)cn1)C1CCCCC1.Cl [Example 78, 9-(2-(cyclohexyl(ethyl)amino)pyrimidin-5-yl)-6,7-dimethoxynaphtho[2,3-c]furan-1(3H)-one hydrochloride]	18.80		> 50 µM	5.58
COc1cc2cc3c(c(-c4ccc(N(C)C5CCCCC5)nc4)c2cc1OC)C(=O)OC3 [Example 175, 9-(6-(cyclohexyl(methyl)amino)pyridin-3-yl)-6,7-dimethoxynaphtho[2,3-c]furan-1(3H)-one]	42.02	5.92	> 50 µM	
COc1cc2cc3c(c(-c4cnc(N5CCc6ccccc6[C@@H]5c5ccccc5)nc4)c2cc1OC)C(=O)OC3 [Example 151, (S)-6,7-dimethoxy-9-(2-(1-phenyl-3,4-dihydroisoquinolin-2 (1H)-yl)pyrimidin-5-yl)naphtho[2,3-c]furan-1(3H)-one]	1.0	< 4.30	> 50 µM	
COc1cc2cc3c(c(-c4cc5c(cc4OP(=O)(NCCN4CCOCC4)Oc4ccccc4)OCO5)c2cc1OC)C(=O)OC3 (stereo not drawn) [Example 279, 6-(6,7-dimethoxy-3-oxo-1,3-dihydronaphtho[2,3-c]furan-4-yl)benzo[d][1,3]dioxol-5-yl phenyl (2-morpholinoethyl)phosphoramidate]	8.21		> 50 µM	5.22
COc1cc2cc3c(c(-c4cnc(N(C)c5cccc(C(F)(F)F)c5)nc4)c2cc1OC)C(=O)OC3 [Example 216, 6,7-dimethoxy-9-(2-(methyl(3-(trifluoromethyl)phenyl)amino)pyrimidin-5-yl)naphtho[2,3-c]furan-1(3H)-one]	52.13	6.02	> 50 µM	
COc1cc2cc3c(c(-c4ccnc(Cl)c4)c2cc1OC)C(=O)OC3 [Example 184, 9-(2-chloropyridin-4-yl)-6,7-dimethoxynaphtho[2,3-c]furan-1(3H)-one]	1.0	< 4.30	> 50 µM	
COc1cc2cc3c(c(-c4cnc(N(C)C5CC5)nc4)c2cc1OC)C(=O)OC3 [Example 70, 9-(2-(cyclopropyl(methyl)amino)pyrimidin-5-yl)-6,7-dimethoxynaphtho[2,3-c]furan-1(3H)-one]	92.84	6.27	> 50 µM	
CCN(c1ccc(-c2c3c(cc4cc(OC)c(OC)cc24)COC3=O)cn1)C(C)C [Example 182, 9-(6-(ethyl(isopropyl)amino)pyridin-3-yl)-6,7-dimethoxynaphtho[2,3-c]furan-1(3H)-one]	75.67	6.18	> 50 µM	
CNc1cccc(-c2c3c(cc4cc(OC)c(OC)cc24)COC3=O)c1 [Example 257, 6,7-dimethoxy-9-(3-(methylamino)phenyl)naphtho[2,3-c]furan-1(3H)-one]	6.24	5.10	> 50 µM	
COc1cc2c(OC)c3c(c(-c4ccc(N(C)[C@H]5CCc6c(cccc6OC)C5)nc4)c2cc1OC)COC3=O [Example 266, (S)-6,7,9-trimethoxy-4-(6-((5-methoxy-1,2,3,4-tetrahydronaphthalen-2-yl)(methyl)amino)pyridin-3-yl)naphtho[2,3-c]furan-1(3H)-one]	1.00	< 4.30	> 50 µM	
COc1cc2cc3c(c(-c4cnc(N(C)CC(OC)OC)nc4)c2cc1OC)C(=O)OC3 [Example 94, 9-(2-((2,2-dimethoxyethyl)(methyl)amino)pyrimidin-5-yl)-6,7-dimethoxynaphtho[2,3-c]furan-1(3H)-one]	10.16	5.31	> 50 µM	
COc1ccc(CN(C)c2ccc(-c3c4c(cc5cc(OC)c(OC)cc35)COC4=O)cn2)c(OC)c1.Cl [Example 232, 9-(6-((2,4-dimethoxybenzyl)(methyl)amino)pyridin-3-yl)-6,7-dimethoxynaphtho[2,3-c]furan-1(3H)-one]	15.36		> 50 µM	5.49
COc1cc2cc3c(c(-c4ccc5occc5c4)c2cc1OC)C(=O)OC3 [Example 52, 9-(benzofuran-5-yl)-6,7-dimethoxynaphtho[2,3-c]furan-1(3H)-one]	35.13	5.85	> 50 µM	
COCCN(C)c1ccc(-c2c3c(c(OC)c4cc(OC)c(OC)cc24)C(=O)OC3)cn1.Cl [Example 265, 6,7,9-trimethoxy-4-(6-((2-methoxyethyl)(methyl)amino)pyridin-3-yl)naphtho[2,3-c]furan-1(3H)-one]	1.51		> 50 µM	4.48
COc1cc2cc3c(c(-c4ccc(-n5nc(N(C)C)nc5SC)nc4)c2cc1OC)C(=O)OC3.Cl [Example 223, 9-(6-(3-(dimethylamino)-5-(methylthio)-1H-1,2,4-triazol-1-yl)pyridin-3-yl)-6,7-dimethoxynaphtho[2,3-c]furan-1(3H)-one]	3.11		> 50 µM	4.79
COc1cc2cc3c(c(-c4cncc(OCCN(C)C)c4)c2cc1OC)C(=O)OC3.Cl [Example 187, 9-(5-(2-(dimethylamino)ethoxy)pyridin-3-yl)-6,7-dimethoxynaphtho[2,3-c]furan-1(3H)-one]	1.0		> 50 µM	< 4.30
COc1cc2cc3c(c(-c4cnc(N(C)C5CCCCC5)nc4)c2cc1OC)C(=O)OC3.Cl [Example 79, 9-(2-(cyclohexyl(methyl)amino)pyrimidin-5-yl)-6,7-dimethoxynaphtho[2,3-c]furan-1(3H)-one hydrochloride]	46.19		> 50 µM	5.97
COc1cc2c(OC)c3c(c(-c4ccc(N5CCOCC5)nc4)c2cc1OC)COC3=O [Example 267, 6,7,9-trimethoxy-4-(6-morpholinopyridin-3-yl)naphtho[2,3-c]furan-1(3H)-one]	1.00	< 4.30	> 50 µM	
COc1cc2cc3c(c(-c4cnc(NC5CC5)nc4)c2cc1OC)C(=O)OC3 [Example 69, 9-(2-(cyclopropylamino)pyrimidin-5-yl)-6,7-dimethoxynaphtho[2,3-c]furan-1(3H)-one]	1.00	< 4.30	> 50 µM	

Reference: patent US20240368104A1, “Novel Dialkoxynaphtho[2,3-C]Furan-1(3H)-One Derivatives and Pharmaceutical Composition For Preventing or Treating Respiratory Disease or SARS-COV-2 Infection Disease, Comprising Same” (priority 2021, published 2024)
